Reference: patent US8338471B2, “(2,5-dioxoimidazolidin-i-yl)-n-hydroxy-acetamides as metalloproteinase inhibitors” (Medivir AB, priority 2005, dated 2012)
pKi: −log10 of the molar value.

What was measured:
Format in all cases: biochemical
recombinant human MMP-3 = target: T1, recombinant human MMP-3 (Homo sapiens, UniProt P08254); assay: MMP-3 enzyme assay (FRET substrate), selectivity versus MMP-12; conditions: fold difference in Ki for MMP-3 compared to MMP-12
T1 construct: purchased R&D Systems
Method: The activity was measured by a continuous detection of increased fluorescence intensity during 12 min. The substrate consisted of a peptide with a fluorescent donor 7-methoxycoumarin (Mca) and a quenching acceptor 2,4-dinitrophenyl group (Dpa), typically Mca-Arg-Pro-Lys-Pro-Val-Glu-Nval-Trp-Arg-Lys(Dnp)-NH2 (R&D Systems, ES002). The cleavage site by MMP-3 is the peptide bond between Glu and Nval. The compounds were tested at a range of concentrations, the enzyme concentration (MMP-3) was fixed at 400 ng/ml and the substrate concentrations was 10 μM. The MMP-3 assay used employs recombinant human MMP-3 (supplied by R&D Systems) in an assay buffer of 50 mM Tris-HCl, 200 mM calcium acetate at pH=7.5. The MMP-3 enzyme was preactivated by dilution to 0.119 mg/ml into 1 mM APMA (p-aminophenylmercuric acetate) followed by incubation at 37° C. for 24 hours. The substrate was prepared at a 100 μM stock solution in DMSO and a 96-well polypropylene plate was used for the reaction mixtures. To each well of the plate was added assay buffer 90.0 μl, enzyme (MMP-3) 0.3 μl and inhibitor 1 μl. The reactions were started by addition of substrate, 10 μl/well, to a total volume of 100 μl/well. The total concentration of DMSO was not above 1%. The assay was performed at ambient temperature. Product fluorescence ([…]) was monitored with a Thermo Labsystems Fluoroskan Ascent plate reader. The Ki was determined by Prism Software.
(§1) The selectivity for MMP-12 over MMP-3 and TACE was evaluated for a representative selection of the compounds of the invention by comparing the Ki figures obtained when tested in the corresponding enzyme assays, such as those described above. The selectivity is presented as the fold difference in Ki for TACE and MMP-3 compared to MMP-12 and is calculated as the ratio Ki(TACE)/KiMMP-12 and Ki(MMP-3)/KiMMP-12 respectively.

recombinant human TACE = target: T2, recombinant human TACE (Homo sapiens, UniProt P78536); assay: TACE enzyme assay (FRET substrate), selectivity versus MMP-12; conditions: fold difference in Ki for TACE compared to MMP-12
T2 construct: purchased R&D Systems
Method: The activity was measured by a continuous detection of increased fluorescence intensity during 12 min. The substrate consisted of a peptide with a fluorescent donor 7-methoxycoumarin (Mca) and a quenching acceptor 2,4-dinitrophenyl group (Dpa), typically Mca-P-L-A-Q-A-V-Dpa-R-S-S-S-R-NH2 (R&D Systems, ES003). The cleavage site by TACE is the peptide bond between Ala and Val. The compounds were tested at a range of concentrations while the enzyme and substrate concentrations were fixed. A typical TACE assay employs recombinant human TACE (supplied by R&D Systems) in an assay buffer (25 mM Tris-HCl, pH=9.0, 2.5 μM ZnCl2, 0.005% Brij 35). The enzyme concentration (TACE) used was 100 ng/ml, the substrate was prepared at a 100 μM stock solution in DMSO and a 96-well polypropylene plate was used for the reaction mixtures. To each well of the plate was added assay buffer 90.0 μl, enzyme (TACE) 0.09 μl and inhibitor 1 μl. The reactions were started by addition of substrate 10 μl/well, giving a substrate concentration of 10 μM and a total volume of 100 μl/well. The total concentration of DMSO was not above 1%. The assay was performed at ambient temperature. Product fluorescence ([…]) was monitored with a Thermo Labsystems Fluoroskan Ascent plate reader. The Ki was determined by Prism Software.
as §1

recombinant human MMP-12 = target: T3, recombinant human MMP-12 (Homo sapiens, UniProt P39900); assay: MMP-12 enzyme assay (FRET substrate)
T3 construct: purchased R&D Systems; host or cells: mouse myeloma cell line NS-40 (so in the source)
Method: A typical MMP-12 enzyme assay employs recombinant human MMP-12 catalytic domain expressed and purified as described by Parkar A. A. et al, (2000), Protein Expression and Purification, 20:152. The purified enzyme can be used to monitor inhibitors of activity as follows: MMP-12 (50 ng/ml final concentration) is incubated for 60 minutes at room temperature with the synthetic substrate Mac-Pro-Cha-Gly-Nva-His-Ala-Dpa-NH2 in assay buffer (0.1M “Tris-HCl” (trade mark) buffer, pH 7.3 containing O.1M NaCl, 20 mM CaCl2, 0.020 mM ZnCl and 0.05% (w/v) “Brij 35” (trade mark) detergent) in the presence (5 concentrations) or absence of inhibitors. Activity is determined by measuring the fluorescence at λex 320 nm and λem 405 nm. Percent inhibition is calculated as follows: % Inhibition is equal to the (Fluorescenceplus inhibitor−Fluorescencebackground); divided by the (Fluorescenceminus inhibitor−Fluorescencebackground);
A favoured assay employs full length recombinant human MMP-12, amino acid residues 1 to 470 (Shapiro et al 1993, J Biol Chem 268:23824-23829) expressed in mouse myeloma cell line NS-40. The purified rhMMP-12 typically has the N terminal sequence L17PLNSSTSLE and an SDS-PAGE apparent molecular mass of approx. 56 kDa. Such proteins are available from R&D Systems, USA as a lyophilised 0.2 um filtered solution of 25 mM MES, 0.15M NaCl, 10 mMCaCl2, 0.15% Brij 35, pH 5.5. Auto-activation of the rhMMP-12 can be achieved by dilution to 0.05 mg/ml into TCNB buffer (50 mMTris, 10 mM CaCl2, 0.15M NaCl, 0.05% Brij 35, pH 7) and incubation at 37 degrees for 30 hours. A preferred buffer for MMP work is 50 mM Tris.HCl, pH 7.5, 200 mM Ca acetate.
Suitable FRET substrates include (7-methoxycoumarin-4-yl)acetyl-Pro-Leu-Gly-Leu-(3-(2,4-dinitrophenoyl)-L-2,3-diaminopropionyl)-Ala-Arg-NH2, commercially available from R&D Systems, USA. Typical specific activities are >500 picomol/min/ug, with rhMMP-12 measured with 10 uM of this substrate, 20 ng activated enzyme in 100 ul TCNB buffer at room temperature.
An alternative general MMP substrate is Dnp-PLGLWAD-R-NH2.
Category A indicates ≦50 nM inhibition, category B indicates 51-200 nM inhibition and category C indicates >200 nM: […]

T3 sequence (P39900 106-470): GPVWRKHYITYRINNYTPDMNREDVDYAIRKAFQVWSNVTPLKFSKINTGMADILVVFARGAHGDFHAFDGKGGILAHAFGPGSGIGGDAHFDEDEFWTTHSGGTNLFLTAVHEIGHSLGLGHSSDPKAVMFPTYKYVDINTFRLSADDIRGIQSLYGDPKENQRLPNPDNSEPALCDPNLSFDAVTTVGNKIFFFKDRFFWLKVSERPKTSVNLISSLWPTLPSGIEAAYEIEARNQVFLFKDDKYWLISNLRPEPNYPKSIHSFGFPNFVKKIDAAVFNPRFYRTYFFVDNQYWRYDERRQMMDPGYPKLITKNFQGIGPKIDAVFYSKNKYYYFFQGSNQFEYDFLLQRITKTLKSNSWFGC
T1 sequence (P08254 100-477): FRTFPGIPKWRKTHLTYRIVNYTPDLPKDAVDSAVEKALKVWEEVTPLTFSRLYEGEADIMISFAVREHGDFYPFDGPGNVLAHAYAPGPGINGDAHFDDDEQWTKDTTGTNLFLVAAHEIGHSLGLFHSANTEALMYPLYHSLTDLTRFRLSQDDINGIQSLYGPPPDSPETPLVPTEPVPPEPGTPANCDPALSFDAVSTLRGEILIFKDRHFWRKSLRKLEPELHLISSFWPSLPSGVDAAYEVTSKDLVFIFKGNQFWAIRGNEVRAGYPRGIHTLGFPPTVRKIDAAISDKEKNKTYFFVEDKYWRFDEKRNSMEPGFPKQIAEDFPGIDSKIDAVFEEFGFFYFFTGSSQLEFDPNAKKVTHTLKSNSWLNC
T2 sequence (P78536 215-824): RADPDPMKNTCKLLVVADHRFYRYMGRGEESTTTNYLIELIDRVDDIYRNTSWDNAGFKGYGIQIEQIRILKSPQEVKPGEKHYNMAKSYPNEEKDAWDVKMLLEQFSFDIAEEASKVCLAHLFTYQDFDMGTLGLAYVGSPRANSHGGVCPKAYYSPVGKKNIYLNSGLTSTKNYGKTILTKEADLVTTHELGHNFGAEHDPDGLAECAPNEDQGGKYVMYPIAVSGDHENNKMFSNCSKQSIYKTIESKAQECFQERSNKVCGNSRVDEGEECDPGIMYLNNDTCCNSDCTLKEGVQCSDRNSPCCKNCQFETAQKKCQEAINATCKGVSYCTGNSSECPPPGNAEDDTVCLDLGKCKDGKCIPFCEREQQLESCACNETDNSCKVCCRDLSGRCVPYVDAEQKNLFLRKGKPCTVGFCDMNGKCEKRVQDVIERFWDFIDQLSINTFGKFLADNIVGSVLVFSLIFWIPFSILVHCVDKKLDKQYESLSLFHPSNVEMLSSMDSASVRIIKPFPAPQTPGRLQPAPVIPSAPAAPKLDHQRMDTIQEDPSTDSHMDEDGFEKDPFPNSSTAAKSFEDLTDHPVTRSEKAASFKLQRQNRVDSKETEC

Row | SMILES | Ki(MMP-3)/Ki(MMP-12) (recombinant human MMP-3) | Ki(TACE)/Ki(MMP-12) (recombinant human TACE) | pKi (recombinant human MMP-12)
1 | CC(C)[C@H](C(=O)NO)N1C(=O)N[C@@H](COCc2ccc(Br)cc2)C1=O (stereo in doubt) [Example 13i, 2-[4-(4-Bromobenzyloxymethyl)-2,5-dioxo-imidazolidin-1-yl]-N-hydroxy-3-methyl-butyramide] | >190 | >190 | –
2 | O=C(NO)[C@@H](Cc1ccccc1)N1C(=O)N[C@@H](CCc2ccccc2)C1=O [Example 10, 2-(2,5-Dioxo-4-phenethyl-imidazolidin-1-yl)-N-hydroxy-3-phenhyl-propionamide] | 34 | >150 | ≥ 7.30
3 | CC(C)[C@H](C(=O)NO)N1C(=O)N[C@@H](COCc2ccc(C(F)(F)F)cc2)C1=O [Example 14, 2-[2,5-Dioxo-4-(4-trifluoromethyl-bezyloxymethyl)-imidazolidin-1-yl]-N-hydroxy-3-methyl-butyramide] | >500 | >500 | ≥ 7.30
4 | CC(C)[C@H](C(=O)NO)N1C(=O)N[C@@H](COCc2cccc(F)c2)C1=O [Example 15, 2-[4-(3-Fluorobenzyloxymethyl)-2,5-dioxo-imidazolidin-1-yl]-N-hydroxy-3-methyl-butyramide] | 120 | >700 | 6.70 to 7.29
5 | COc1cccc(CCC2NC(=O)N(C(C(=O)NO)C(C)C)C2=O)c1 (stereo not shown) [Example 32, N-Hydroxy-2-{4-[2-(3-methoxyphenyl)-ethyl]-2,5-dioxoimidazolidin-1-yl}-3-methylbutyramide] | >200 | 140 | –

The next lines start with the values.

Row | Ki(MMP-3)/Ki(MMP-12) (recombinant human MMP-3) | Ki(TACE)/Ki(MMP-12) (recombinant human TACE) | pKi (recombinant human MMP-12) | SMILES
6 | 71 | >4500 | – | CC(C)[C@H](C(=O)NO)N1C(=O)N[C@@H](CCc2ccc(-c3ccccc3)cc2)C1=O (stereo in doubt) [Example 5, 2-[4-(2-Biphenyl-4-yl-ethyl)-2,5-dioxo-imidazolidin-1-yl]-N-hydroxy-3-methyl-butyramide]
7 | 140 | 380 | – | CC(C)[C@H](C(=O)NO)N1C(=O)N[C@@H](CCc2ccccc2)C1=O [Example 1]
8 | 53 | >80 | 6.70 to 7.29 | CC(C)[C@H](C(=O)NO)N1C(=O)N[C@H](CCc2ccccc2)C1=O [Example 7, 2-(2,5-Dioxo-4-phenethyl-imidazolidin-1-yl)-N-hydroxy-3-methyl-butyramide]
9 | 122 | 245 | – | CC(C)(C)[C@H](C(=O)NO)N1C(=O)N[C@@H](CCc2ccccc2)C1=O [Example 12, 2-(2,5-Dioxo-4-phenethyl-imidazolidin-1-yl)-N-hydroxy-3,3-dimethyl-butyramide]
10 | 75 | 2200 | ≥ 7.30 | Cc1ccc(CCC2NC(=O)N(C(C(=O)NO)C(C)C)C2=O)cc1 (stereo not shown) [Example 30, 2-[2,5-Dioxo-4-(2-p-tolylethyl)-imidazolidin-1-yl]-N-hydroxy-3-methyl-butyramide]
11 | 240 | 280 | ≥ 7.30 | CC(C)[C@H](C(=O)NO)N1C(=O)N[C@@H](CCc2ccccc2F)C1=O [Example 36, 2-{4-[2-(2-Fluorophenyl)-ethyl]-2,5-dioxoimidazolidin-1-yl}-N-hydroxy-3-methylbutyramide]
12 | 150 | 390 | ≥ 7.30 | CC(C)[C@H](C(=O)NO)N1C(=O)N[C@@H](CCc2ccc(F)cc2)C1=O [Example 38, 2-{4-[2-(4-Fluoro-phenyl)-ethyl]-2,5-dioxoimidazolidin-1-yl}-N-hydroxy-3-methylbutyramide]
